How the values were obtained:
Format in all cases: cell-based
[1] = system: Monkey ES cells; assay: Cardiac muscle cell differentiation of monkey ES cells, 6-well plate, GFP expression observed at day 14
From the text: In the same manner as Example 2, the effects of promoting cardiac muscle cell differentiation were compared among KY02111 and N11474, known Wnt signaling inhibitors (IWP2, XAV939 and IWR1), proteins known to be effective in promoting cardiac muscle cell differentiation (G-CSF, IGFBP4, Dkk1 and cytokines (a mixture of bFGF, BMP4, VEGF, DKK1 and Activin A)).
The effect of BIO, a Wnt signaling activator, on the effect of promoting cardiac muscle cell differentiation of KY02111, XAV939 and IWP2 was analyzed. […]

[2] = system: Human iPS (253G1); assay: Number of beating colonies of cardiac muscle cells; conditions: KY02111 5 μM during day 4 to 14
Description: (§1) The effect of promoting differentiation of each of the ES/iPS cells into cardiac muscle cells were confirmed for N11474 and KY02111 with the GFP expression level and number of beating colonies used as the indicators. Human ES cell line (Kh-1 line) (Suemori, H., et al., Efficient establishment of human embryonic stem cell lines and long-term maintenance with stable karyotype by enzymatic bulk passage. Biochem Biophys Res Commun. 345(3), 926-32 (2006)) (incorporated herein by reference) was seeded in a 6-well plate (Asahi Glass/5816-006: Ezview culture plate) in 1.2×10^6 cells/well and cultured for 22 days, with BMP4 (10 ng/ml) added during day 0 to 4 of culture and N11474 (10 μM) or KY02111 (5 μM) added during day 4 to 14 of culture. Human iPS cell lines (253G1, IMR90-1, IMR90-4 and RCHIPC0003) (Takahashi, K., et al., Induction of pluripotent stem cells from adult human fibroblasts by defined factors. Cell. 131(5), 861-72 (2007); Yu, J., et al., Induced pluripotent stem cell lines derived from human somatic cells. Science. 318(5858), 1917-20 (2007)) (these references are herein incorporated by reference) were cultured for the cardiac muscle cell differentiation in the same manner as for the human ES cells. The cardiac muscle cells from mouse ES cells (R1) were differentiated in accordance with the method described in the reference (Transient inhibition of BMP signaling by Noggin induces cardiomyocyte differentiation of mouse embryonic stem cells. Yuasa S, et al. Nat. Biotechnol. 2005 May; 23(5): 607-11; incorporated herein by reference). KY02111 (5 μM) was added for 3 days during day 6 to 9 of cardiac muscle cell differentiation culture and the beating colonies of cardiac muscle cells were analyzed at day 9. Monkey ES cells (CMK6.4) were cultured for cardiac muscle cell differentiation in the same manner as in the above (2).

[3] = system: Human iPS (RCHIPC0003); assay: Number of beating colonies of cardiac muscle cells; conditions: KY02111 5 μM during day 4 to 14
Description: as §1

[4] = system: Monkey ES cells (CMK6.4); assay: Number of beating colonies of cardiac muscle cells; conditions: Monkey ES (CMK6.4)
Description: as §1

[5] = system: mouse ES cells (R1); assay: Number of beating colonies of cardiac muscle cells; conditions: KY02111 5 μM during day 6 to 9, analyzed at day 9
Description: as §1

[6] = system: Human iPS (IMR90-1); assay: Number of beating colonies of cardiac muscle cells; conditions: KY02111 5 μM during day 4 to 14
Description: The effect of promoting differentiation of each of the ES/iPS cells into cardiac muscle cells were confirmed for N11474 and KY02111 with the GFP expression level and number of beating colonies used as the indicators. Human ES cell line (Kh-1 line) (Suemori, H., et al., Efficient establishment of human embryonic stem cell lines and long-term maintenance with stable karyotype by enzymatic bulk passage. Biochem Biophys Res Commun. 345(3), 926-32 (2006)) (incorporated herein by reference) was seeded in a 6-well plate (Asahi Glass/5816-006: Ezview culture plate) in 1.2×10^6 cells/well and cultured for 22 days, with BMP4 (10 ng/ml) added during day 0 to 4 of culture and N11474 (10 μM) or KY02111 (5 μM) added during day 4 to 14 of culture. […] KY02111 (5 μM) was added for 3 days during day 6 to 9 of cardiac muscle cell differentiation culture and the beating colonies of cardiac muscle cells were analyzed at day 9. […] The effect of BIO, a Wnt signaling activator, on the effect of promoting cardiac muscle cell differentiation of KY02111, XAV939 and IWP2 was analyzed. […] The synergistic effects between KY02111 and a known Wnt signaling inhibitor XAV939 or IWP2 in the promotion of cardiac muscle cell differentiation were analyzed.

[7] = system: Wnt signaling target genes in human iPS cells; assay: Gene expression analysis by DNA array and quantitative polymerase chain reaction; design: expressions of genes by DNA array (HOXA1, MSGN1, NKD1, T, TNFRSF11B, DKK1, DKK4, CDX2, MSX1, NODAL, FGF4 and others): dose or concentration left out as unconfirmed
Description: (in the order of the genes whose expression were reduced most 12 hours later) HOXA1, MSGN1, NKD1, T, TNFRSF11B, DKK1, DKK4, CDX2, MSX1, NODAL, FGF4, PAPPA, PRRX1, LRAT, CYP1B1, SLC34A2, AXIN2, LGL1, SPS, MIXL1, APCDD1 and DSEL. […] The analyzed genes were as follows: MSGN1, HOXA1; T, MIXL1; Dkk1, AXIN2; NODAL and FGF4 (all known as Wnt signaling target genes).

[8] = KY02111 5 μM during day 4 to 8, singly

COc1ccc(CCC(=O)Nc2nc3ccc(Cl)cc3s2)cc1OC [KY02111, 2-(3-(3,4-dimethoxyphenyl)propanamide)-6-chlorobenzothiazole]
increase in the GFP expression level ([1]; 10 μM during day 4 to 10, GFP at day 14): 7400% | effect of promoting cardiac muscle cell differentiation (GFP expression), comparison with Wnt signaling inhibitors and proteins ([1]; 10 μM during day 4 to 10, GFP at day 14, FIG. 10): strongest effect of promoting cardiac muscle cell differentiation | effect of BIO on the compound's effect of cardiac muscle cell differentiation (GFP expression) ([1]; BIO 5 μM added together with the compound during day 4 to 10, GFP at day 14): did not inhibit | increase in the GFP expression level versus Control (DMSO) [1, 8]: about 30 times | proportion of beating colonies [1, 8]: about 30% | ratio of number of GFP colonies [1, 8]: ~73% | Beating cardiac muscle cell differentiation efficiency (Control (DMSO) = 100%) [2]: 1500% (KY02111) | Beating cardiac muscle cell differentiation efficiency (Control (DMSO) = 100%) [3]: 100% (KY02111) | Beating cardiac muscle cell differentiation efficiency (Control (DMSO) = 100%) [4]: 1850% (KY02111) | Beating cardiac muscle cell differentiation efficiency (Control (DMSO) = 100%) [5]: 200% (KY02111) | Beating cardiac muscle cell differentiation efficiency (Control (DMSO) = 100%) [6]: 6100% (KY02111) | expressions of genes by DNA array (HOXA1, MSGN1, NKD1, T, TNFRSF11B, DKK1, DKK4, CDX2, MSX1, NODAL, FGF4 and others) ([7]; 12 hours and 24 hours after the addition): reduced | expressions of MSGN1, HOXA1, T, MIXL1, Dkk1, AXIN2, NODAL and FGF4 (Wnt signaling target genes) by qPCR ([7]; FIG. 9): reduced | expression of MSGN1, HOXA1, T, Dkk1 and FGF4 by qPCR ([7]; confirmation of DNA array, FIG. 8): same results as the DNA array analysis
